In US12448705B2, “Bacteriophage compositions and methods of selection of components against specific bacteria” (priority 2016, dated 2025):
In brackets after ≈: the same amount, converted by molar mass.

Experiments:
Assay type in all cases: cell-based
[1] = system: vancomycin-resistant E. faecalis (VRE); experiment: microbe, parasite or virus in culture
Experimental: A culture of VRE was first grown in tryptic soy broth (Remel Cat #R455054) to an Optical Density (OD) of 0.5 at 600 nm. Tryptic soy with tetrazolium dye D (BioLog Cat #74224) was added to a 1% v/v ratio and then sterilized through a 0.22 μm filtration unit (Millipore Cat #SCGP00525). VRE stock phage was serially diluted in tryptic soy broth with dye in separate Eppendorf tubes to a final concentration of 10^7 pfu/ml. Vancomycin (Sigma, Cat #SBR00001-10 ml) was diluted separately in tryptic soy broth with tetrazolium dye to a concentration equal to 4 times the Minimal Inhibition Concentration (MIC) for the bacteria being used.
Briefly, microtiter plates for the phage-antibiotics synergy assay were prepared as follows. Tryptic soy broth with dye was added to the plate first. Next 50 μl of tryptic soy with tetrazolium dye was added to each well. […] The wells with Vancomycin were serially diluted 1:1 from row A down to row F. Phage were added to each well starting at 10^7 pfu/well in column 1 and then serially diluted 1:10 across from column 1 to 6. Individual phage was added at an MOI of 100. Finally all wells were inoculated with approximately 10^4 cfu of E. faecalis bacteria per well. […] The color change of all plates was recorded every 15 minutes over the course of the 48 hour incubation period.

A. baumannii isolate = experiment: Minocycline susceptibility of patient's isolate; settings: day 115, previously obtained isolate
A. baumannii strain TP3 [2] = experiment: Checkerboard assay, phage cocktail and minocycline; settings: Acinetobacter baumannii, TP3, read-out: Minimal Inhibition Concentration (MIC)
A. baumannii strain TP3 [3] = experiment: Minocycline ETEST; settings: Acinetobacter baumannii, TP3, read-out: IC50 of A. baumannii strain TP3 to minocycline by ETEST
Experimental: For example, this assay was performed in order to better understand the interaction between the phage cocktail and minocycline administered in combination to the patient discussed in Example 5. Specifically, each well of a 96 well plate contained tryptic soy media with 1% tetrazolium dye (v/v) for bacterial growth media. […] The wells with antibiotics were then serially diluted 1:1 from row A down to row F. Phage were then added to each well starting at 10^7 pfu per well in column 1 and then serially diluted 1:10 across from column 1 to 6. All wells were then inoculated with approximately 10^4 cfu of bacteria per well. This design allows for antibiotic dilutions going down the columns and dilutions of phage going across the rows. Columns 7 and 8 represent antibiotic control wells and rows G and H represent phage control wells. However, wells G7, G8, H7, and H8 represent bacteria only control wells. […] The IC50 of A. baumannii strain TP3 to minocycline by ETEST (bioMerieux USA, Durham, NC) was 4 μg/mL.

[4] = system: meropenem^R K. pneumoniae 4640; experiment: Phage efficacy assay with meropenem and phage; settings: alone; meropenem 4 μg/ml; phage MOI 100; 48 hours at 37° C.
Experimental: The assay is based on the interaction between lytic phage and bacteria in a liquid environment. In this liquid assay system, tetrazolium dye is added with media. During active growth of bacteria, cellular respiration reduces the tetrazolium dye and produces a color change that is captured by a camera. In this system as many as 400 phage efficacy assays in the presence of a targeted bacterium can be performed simultaneously but separately, thus allowing monitoring of the kinetics of bacterial growth and the development of resistance over the course of the experiment. The interpretation of such phage-bacterial interaction data in liquid environment permits the selection of phages that are highly virulent against the given bacteria, evidenced by a hold-time of at least 4 hours. Further selection of these phages for cocktail preparation is evaluated using the same liquid assay in the presence of various mixtures of these virulent phages.
Using the phage efficacy assay described in Example 1, 10^4 cfu of meropenem^R K. pneumoniae was grown at 37° C. for 48 hours in the following conditions: (a) alone; (b) meropenem or phage (MOI 100); and (c) meropenem and varying MOIs of phage (MOI 0.01-100). The concentration of meropenem used for the indicated cultures was 4 μg/ml. […] The readout of this assay is bacterial growth hold-time.

Q: `CN[C@H](CC(C)C)C(=O)N[C@H]1C(=O)N[C@@H](CC(N)=O)C(=O)N[C@H]2C(=O)N[C@H]3C(=O)N[C@H](C(=O)N[C@H](C(=O)O)c4cc(O)cc(O)c4-c4cc3ccc4O)[C@H](O)c3ccc(c(Cl)c3)Oc3cc2cc(c3O[C@@H]2O[C@H](CO)[C@@H](O)[C@H](O)[C@H]2O[C@H]2C[C@](C)(N)[C@H](O)[C@H](C)O2)Oc2ccc(cc2Cl)[C@H]1O` [Vancomycin] was tested. Which “delay of bacterial growth” value ([1]; 10^4 cfu per well, phage MOI of 100, vancomycin 16 μg/ml, 48 hours at 37° C., FIG. 25) did it give?
A: up to 18 hours

Q: What about the MIC ([1]; Enterococcus faecalis, VRE, read-out: minimal inhibitory concentration for E. faecalis) of the same molecule?
A: 16 µg/mL (≈ 11 µM)

Q: With `CN(C)c1ccc(O)c2c1C[C@H]1C[C@H]3[C@H](N(C)C)C(O)=C(C(N)=O)C(=O)[C@@]3(O)C(O)=C1C2=O` [minocycline] as the molecule, how does the “concentration at which isolate found susceptible” value (A. baumannii isolate) read?
A: 3 µg/mL

Q: And the MIC (A. baumannii strain TP3 [2])?
A: 32 µg/mL

Q: And the IC50 (A. baumannii strain TP3 [3])?
A: 4 µg/mL

Q: For `C[C@@H](O)[C@H]1C(=O)N2C(C(=O)O)=C(S[C@@H]3CN[C@H](C(=O)N(C)C)C3)[C@H](C)[C@H]12` [meropenem], which hold-time [4] is on record?
A: approximately 6 hours
